The source of these data is patent publication US10493169B2, “Use of charge-balanced imaging agents for determining renal function” (Beth Israel Deaconess Medical Center, priority 2009, dated 2019).

Read-outs that look alike come from different tables or passages of the source.

Data set [1] in a line: In vivo biodistribution and clearance of dyes in rats (FLARE NIR fluorescence imaging). The following applies: IV 40 pmol/g (10 nmol). As for the experimental part:
The dyes were injected IV into rats at a dose of 40 pmol/g (10 nmol). […] Excitation fluence rate was 5 mW/cm2. Camera integration time was 200 msec. All NIR fluorescence images have identical normalizations. B 1=bladder. Li=Liver. In=Intestines.

Data set [2] can be described thus: Optical properties of NIR fluorophores in 100% calf serum. The data set is classed as physicochemical. The following applies: 100% calf serum supplemented with 50 mM HEPES, pH 7.4. From the text:
After purification to homogeneity, optical properties of the dyes can be measured in 100% calf serum. Absorbance spectrometry (200 to 870 nm) can be performed using a USB2000 fiber optic spectrometer and CHEM2000-UV-VIS light source with cuvette holder (Ocean Optics, Dunedin, Fla.). Fluorescence spectrometry (200 to 1100 nm) can be performed using a HR2000 fiber optic spectrometer, CUV-ALL-UV 4-way cuvette holder (Ocean Optics), and a 250 mW 770 nm laser diode (Electro Optical Components, Santa Rosa, Calif.). Quantum yield can be measured under conditions of matched absorbance and 770 nm laser excitation, using ICG in DMSO (QY=13%) as the calibration standard.
(§1) Table 2 below summarizes the optical and stability properties of each of these dyes in 100% calf serum (supplemented with 50 mM HEPES, pH 7.4).

Data set [3] in a line: In vivo biodistribution and clearance of dyes in pigs (FLARE NIR fluorescence imaging). The following applies: for Blood half-lives: IV 40 pmol/g, given in the pig paragraph, species not restated; for uptake in liver and intestines: pigs, IV 40 pmol/g (1.6 μmol).
Description: (§2) For in vivo characterization, 40 pmol/g (average 10 nmol) of each dye or conjugate can be injected IV into 250 g Sprague-Dawley rats whose major viscera are surgically exposed. The FLARE™ imaging system can be set to a 760 nm excitation fluence rate of 5 mW/cm2. Simultaneous color video and NIR fluorescence (800 nm) images can be acquired pre-injection, every 1 sec for the first 20 sec then every 1 min for 2 h. Camera acquisition can be held constant (typically 100 msec) and chosen to ensure that all intensity measurements are within the linear range of the 12-bit Orca-AG (Hamamatsu) NIR camera. Blood can be sampled at 0, 1, 2, 5, 10, 15, 30, 60, and 120 min via tail vein. Intensity-time curves for all major organs and tissues can be quantified. The peak fluorescence intensity and time can be determined for each tissue/organ, along with the intensity in each at 1 h post-injection. The experiment can then be repeated in pigs, with measurement of NIR fluorescent intensity of skin and all internal tissues and organs.
(§3) All dyes were injected IV into pigs at a dose of 40 pmol/g (1.6 μmol). […] Excitation fluence rate was 5 mW/cm2. Camera integration time was 200 msec. All NIR fluorescence images had identical normalizations.
A short description of data set [4]: Stability of dyes in 100% calf serum at 37° C. The data set is classed as in vitro ADME. The following applies: 100% calf serum supplemented with 50 mM HEPES, pH 7.4. As to the method:
as §1

For data set [5] the following is noted: in DMSO; cited from earlier work.
Data set [6] in a line: in vivo. The following applies: pig, iv.
Description: as §2, §3
A short description of data set [7]: Renal clearance: recovery of dye in urine samples. The following applies: human, healthy individuals, urine over 12 h, read-out: recovery of the pre-determined dose in urine. The data set is classed as in vivo. As for the experimental part:
Dye MM-19 with net charge of 0 was administered to three groups of subjects of healthy individuals. One group was administered a pre-determined dose of 0.5 mg; one group was administered a pre-determined dose of 2.5 mg; and one group was administered a pre-determined dose of 5.0 mg. Clearance of the dye was measured by quantitative analysis of urine samples obtained by catheterization every hour for the first four hours followed by samples obtained every two hours for the next 8 hours.

Take `CC1(C)C(/C=C/C2=C(Oc3ccc(S(=O)(=O)O)cc3)C(=C/C=C3/N(CCCCS(=O)(=O)O)c4ccc(S(=O)(=O)[O-])cc4C3(C)C)/CCC2)=[N+](CCCCCC(=O)O)c2ccc(S(=O)(=O)O)cc21` [CW-800]: in data set [1], the “clearance / excretion route” value was “cleared equally by liver and kidneys”; the intestinal signal entry was “high intestinal signal”; the “non-specific uptake / background retention in tissues and organs” value is “relatively high retention in skin and other major tissues and organs”. For the same compound, in data set [2], the “Extinction Coefficient” value is 237,000 M^−1cm^−1, the “Peak Absorbance” value amounted to 786 nm, the “Peak Emission” value amounted to 801 nm and the QY is on record as 14.2%. In data set [3], the Blood half-lives was determined as 30.6 min; the “uptake in liver and intestines” value was “very high uptake in pig liver and intestines”. Besides, the “Stability at 4 h, 37° C.” value in data set [4] came out at 95%.
In the case of `CC1(C)C(/C=C/C=C/C=C/C=C2\N(CCCCS(=O)(=O)[O-])c3ccc4ccccc4c3C2(C)C)=[N+](CCCCS(=O)(=O)[O-])c2ccc3ccccc3c21.[Na+]` [ICG], in data set [1], the “clearance / excretion route” value is given as “eventual excretion into bile” and the liver uptake entry was “rapid uptake by the liver”. In data set [2], the “Extinction Coefficient” value is reported as 121,000 M^−1cm^−1, the “Peak Absorbance” value is given as 807 nm, the “Peak Emission” value worked out at 822 nm and the QY stood at 9.3%. Moreover, in data set [5], the “QY (calibration standard)” value is recorded as 13%. Besides, in data set [3], the Blood half-lives was 4.6 min; the “uptake in liver and intestines” value is “very high uptake in pig liver and intestines”. In data set [4], the “Stability at 4 h, 37° C.” value is on record as 96%.
As usually defined, the half-life is the time needed for the level to fall by half in the phase considered. Read a high half-life as slow decline. On to `CC1(C)C(/C=C/C2=C(Oc3ccc(CCC(=O)[O-])cc3)C(=C/C=C3/N(CCC[N+](C)(C)C)c4ccc(S(=O)(=O)[O-])cc4C3(C)C)/CCC2)=[N+](CCC[N+](C)(C)C)c2ccc(S(=O)(=O)[O-])cc21` [MM-19], for which, in data set [1], the “clearance / excretion route” value is “rapid renal excretion into urine”; the “equilibration between intravascular and extravascular spaces” value is “rapid equilibration between intravascular and extravascular spaces”; the liver uptake entry was “no measurable liver uptake”; the “non-specific uptake / background retention in tissues and organs” value is “extremely low background retention in normal tissues and organs”. Besides, in data set [2], the “Extinction Coefficient” value is reported as 249,000 M^−1cm^−1, the “Peak Absorbance” value is given as 773 nm, the “Peak Emission” value worked out at 790 nm and the QY is given as 13.7%. In addition, the half-life in data set [6] came out at 13.4 min. For the same compound, the dose excreted in data set [7] (dose not named in the sentence (groups 0.5, 2.5, 5.0 mg)) is > 50%. For the same compound, the dose excreted in data set [7] (predetermined dose of 0.5 mg) was > 80%. Also, the dose excreted in data set [7] (predetermined dose of 2.5 mg) was > 60%. Moreover, in data set [4], the “Stability at 4 h, 37° C.” value amounted to 95%.
